Results: patent publication US20240217970A1, “PHTHALIMIDO CEREBLON COMPLEX BINDERS AND TRANSCRIPTION FACTOR DEGRADERS AND METHODS OF USE” (DANA-FARBER CANCER INSTITUTE, INC., priority 2021, published 2024)

Experiments:
CRBN (NanoLuc-CRBN) = biological target: T1, CRBN (NanoLuc-CRBN) (Homo sapiens, UniProt Q96SW2); assay: Cellular CRBN NanoBRET engagement assay; assay type: cell-based; details: HEK293T cells stably expressing NanoLuc-CRBN; tracer 250 nM; two hours incubation
T1 construct: expressed in transfected cells; host or cells: HEK293T (lentiviral transduction, puromycin selection)
T1 sequence (Q96SW2 whole entry, species assumed): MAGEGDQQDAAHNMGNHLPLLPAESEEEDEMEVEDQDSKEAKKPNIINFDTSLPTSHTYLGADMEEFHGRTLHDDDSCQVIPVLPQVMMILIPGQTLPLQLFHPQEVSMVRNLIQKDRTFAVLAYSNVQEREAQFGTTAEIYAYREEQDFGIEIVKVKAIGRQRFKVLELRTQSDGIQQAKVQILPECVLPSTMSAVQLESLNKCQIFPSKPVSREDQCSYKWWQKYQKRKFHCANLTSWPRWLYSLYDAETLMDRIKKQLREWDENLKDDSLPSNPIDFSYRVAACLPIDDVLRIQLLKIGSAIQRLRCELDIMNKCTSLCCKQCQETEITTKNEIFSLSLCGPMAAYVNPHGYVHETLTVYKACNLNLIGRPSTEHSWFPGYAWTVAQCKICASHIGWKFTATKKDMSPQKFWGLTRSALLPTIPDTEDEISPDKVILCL
Experimental: HEK293T cells were transduced with lentivirus and put under puromycin selection (5 μg/mL) for two weeks to produce a cell line stably expressing CRBN with N-terminally fused NanoLuc luciferase (NanoLuc®-CRBN). After antibiotic selection, cells were cultured in DMEM (Gibco, Life Technologies™) supplemented with 10% FBS and 1 μg/mL puromycin to maintain stable NanoLuc®-CRBN expression.
To run the assay, cells were cultured to confluency in 10 cm^2 tissue culture treated plates (Corning®, 430165), washed with PBS and trypsinized at room temperature to detach from the cell culture plate. After 3-4 minutes, the trypsin was quenched with 5× volume DMEM media (Gibco, Life Technologies™) with 10% FBS and cells are collected by centrifugation (1000 rpm, 5 min). The supernatant was removed by vacuum aspiration and the pellet was then resuspended in Opti-MEM™ without phenol red. The density of this cell suspension was determined by diluting the cells 1:1 with trypan blue, then counting using a Countess™ II (Thermo Fischer Scientific) and then diluted to the required volume at 2×10^5 viable cells/mL in Opti-MEM™ I (Gibco, Life Technologies™). CRBN engagement tracer (stock at 10 μM in 31.25% PEG-400, 12.5 mM HEPES, pH 7.5, filtered using a 0.22 μm nitrocellulose membrane; final concentration in cell suspension for assay at 250 nM) was added to the suspension. Cells were then plated in a white/opaque cell culture treated 384-well plate (Corning®, 3570) at volume of 50 μL/well. After plating, the assay plate was centrifuged (500×g, 5 min) and covered in aluminum foil. Compounds for testing were added to the plate using D300e Digital Dispenser (HP) in duplicate 12-pt titrations from a 10 mM stock in DMSO, with DMSO normalized to 1% total volume. The plate was then placed in an incubator at 37° C., 5% CO2 for two hours. After incubation, the plate was removed and set on the bench to come to room temperature (˜10-15 min). The NanoLuc® substrate (500× solution)* and extracellular inhibitor (1500× solution)* were diluted in Opti-MEM™ I (Gibco, Life Technologies™) to prepare a 3× solution. This was then added to each well (25 μL/well). The plate was read on a Pherastar® FSX microplate reader with simultaneous dual emission capabilities to read 384-well plates at 450 and 520 nm. The NanoBRET™ ratio was calculated by dividing the signal at 520 nm by the signal at 450 nm for each sample. Duplicate points were averaged and plotted against [compound, M] to generate an ECso curve.

IKZF2 (Helios) = biological target: T2, IKZF2 (Helios) (Homo sapiens, UniProt Q96SW2+Q9UKS7); assay: HiBiT-IKZF2 degradation assay in MOLT4 cells; assay type: cell-based; details: for inhibition at 10 µM: MOLT-4, 10 μM; for DC50: concentration at which 50% of HiBiT-Helios degradation was achieved, read-out: Cellular Degradation - IKZF2 DC50
T2 construct: endogenous in cells; host or cells: MOLT4 (CRISPR/Cas knock-in of HiBiT at the endogenous IKZF2 locus)
T2 sequence (Q9UKS7 whole entry): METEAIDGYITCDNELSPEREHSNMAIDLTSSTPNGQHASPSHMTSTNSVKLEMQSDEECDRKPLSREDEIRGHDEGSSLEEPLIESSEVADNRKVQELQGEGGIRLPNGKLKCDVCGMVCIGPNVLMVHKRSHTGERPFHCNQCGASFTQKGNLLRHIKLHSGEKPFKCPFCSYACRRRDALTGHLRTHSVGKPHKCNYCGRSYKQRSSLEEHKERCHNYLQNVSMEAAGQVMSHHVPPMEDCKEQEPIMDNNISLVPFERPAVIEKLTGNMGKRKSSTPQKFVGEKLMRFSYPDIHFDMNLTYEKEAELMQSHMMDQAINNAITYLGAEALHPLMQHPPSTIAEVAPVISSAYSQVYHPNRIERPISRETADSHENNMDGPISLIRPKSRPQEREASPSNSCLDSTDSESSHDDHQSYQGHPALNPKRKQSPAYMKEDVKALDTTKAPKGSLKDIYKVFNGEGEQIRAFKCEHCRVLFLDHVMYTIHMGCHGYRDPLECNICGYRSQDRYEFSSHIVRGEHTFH
T2 sequence (Q96SW2 whole entry): as the sequence (Q96SW2 whole entry, species assumed) above
T2 sequence (Q16531 whole entry partner): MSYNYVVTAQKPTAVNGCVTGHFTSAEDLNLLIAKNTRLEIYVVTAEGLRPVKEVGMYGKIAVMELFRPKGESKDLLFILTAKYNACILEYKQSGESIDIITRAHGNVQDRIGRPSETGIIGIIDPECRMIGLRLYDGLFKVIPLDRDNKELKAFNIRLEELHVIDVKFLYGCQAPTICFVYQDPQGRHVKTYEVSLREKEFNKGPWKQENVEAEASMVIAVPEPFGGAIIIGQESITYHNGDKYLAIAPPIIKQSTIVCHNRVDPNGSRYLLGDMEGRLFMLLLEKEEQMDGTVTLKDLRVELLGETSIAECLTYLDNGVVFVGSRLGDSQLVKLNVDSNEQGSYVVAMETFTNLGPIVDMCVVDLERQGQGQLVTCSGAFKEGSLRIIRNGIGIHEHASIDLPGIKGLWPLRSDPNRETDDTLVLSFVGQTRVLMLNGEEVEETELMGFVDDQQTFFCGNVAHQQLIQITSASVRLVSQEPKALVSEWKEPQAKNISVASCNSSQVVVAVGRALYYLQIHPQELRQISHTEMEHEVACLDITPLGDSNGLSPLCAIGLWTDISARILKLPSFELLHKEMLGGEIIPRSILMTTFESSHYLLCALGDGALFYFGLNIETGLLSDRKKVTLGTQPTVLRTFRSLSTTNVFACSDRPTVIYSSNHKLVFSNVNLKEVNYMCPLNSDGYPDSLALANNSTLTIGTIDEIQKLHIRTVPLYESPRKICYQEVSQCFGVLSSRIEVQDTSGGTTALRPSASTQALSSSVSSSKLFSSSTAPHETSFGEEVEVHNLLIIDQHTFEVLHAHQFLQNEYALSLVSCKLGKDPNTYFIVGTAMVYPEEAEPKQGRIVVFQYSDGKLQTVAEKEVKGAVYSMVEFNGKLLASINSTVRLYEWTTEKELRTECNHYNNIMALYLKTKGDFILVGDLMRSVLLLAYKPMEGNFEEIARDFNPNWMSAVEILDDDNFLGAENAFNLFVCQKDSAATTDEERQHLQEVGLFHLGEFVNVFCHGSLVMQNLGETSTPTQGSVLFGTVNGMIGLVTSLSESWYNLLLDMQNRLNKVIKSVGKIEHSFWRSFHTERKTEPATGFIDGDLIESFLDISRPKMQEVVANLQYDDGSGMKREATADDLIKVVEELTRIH
Experimental: The HiBiT protein tagging system was applied to MOLT4 cells via a CRISPR/Cas-mediated insertion of the HiBiT peptide tag (Promega™) to the N-terminus of the IKZF2 gene locus (Neon™ Transfection System). The resulting HiBiT-Helios stable cell line was treated with inventive compounds 1-10 in triplicates following a 13-point concentration scheme ranging from 10 μM to 0.00026 μM. At the indicated timepoints, the Nano-Glo® HiBiT Lytic Detection system (Promega™) was utilized for detecting bioluminescence of the HiBiT tag in treated cells: the abundance of the tag is proportionate to the level of luminescence. Following normalization to DMSO, dose-response curves were plotted (GraphPad Prism) to determine the concentration points at which 50% of HiBiT-Helios degradation was achieved by each compound. The extent of degradation (range of luminescence) from the highest to lowest concentration points was calculated to determine Dmax.

**Q.** What does the source list for N#Cc1ccc(Oc2cccc(CN3CCC(O)(c4ccc5c(c4)C(=O)N(C4CCC(=O)NC4=O)C5=O)CC3)c2)cc1 (stereo not shown) [Compound 5]?
**A.** IC50 (CRBN (NanoLuc-CRBN)): 24 nM; inhibition at 10 µM (IKZF2 (Helios)): 77%; DC50 (IKZF2 (Helios)): 4.3 nM

**Q.** With O=C1CCC(N2C(=O)c3ccc(C4=CCN(Cc5ccccc5)CC4)cc3C2=O)C(=O)N1 (stereo not shown) [Compound 19, 5-(1-Benzyl-1,2,3,6-tetrahydropyridin-4-yl)-2-(2,6-dioxopiperidin-3-yl)isoindoline-1,3-dione] as the compound, how does the IC50 (CRBN (NanoLuc-CRBN)) read?
**A.** Its IC50 is 1700 nM.

**Q.** What about the inhibition at 10 µM (IKZF2 (Helios)) of the same compound?
**A.** Its inhibition at 10 µM is 30%.

**Q.** For O=C1CCC(N2C(=O)c3ccc(C4(O)CCN(Cc5cccc(Oc6ccc(F)cc6)c5)CC4)cc3C2=O)C(=O)N1 (stereo not shown) [Compound 6], which IC50 (CRBN (NanoLuc-CRBN)) is on record?
**A.** Its IC50 is less than 2.6 nM.

**Q.** And the inhibition at 10 µM (IKZF2 (Helios))?
**A.** The inhibition at 10 µM was 77%.

**Q.** And the DC50 (IKZF2 (Helios))?
**A.** The DC50 was 7.3 nM.

**Q.** Which results are given for COc1cccc(CN2CCC(O)(c3ccc4c(c3)C(=O)N(C3CCC(=O)NC3=O)C4=O)CC2)c1 (stereo not shown) [Compound 10]?
**A.** inhibition at 10 µM (IKZF2 (Helios)): 77%; DC50 (IKZF2 (Helios)): 16 nM

**Q.** How did the inhibition at 10 µM (IKZF2 (Helios)) turn out when O=C1CCC(N2C(=O)c3ccc(C4CCN(Cc5ccccc5)CC4)cc3C2=O)C(=O)N1 (stereo not shown) [Compound 20] was run?
**A.** Its inhibition at 10 µM is 45%.

**Q.** O=C1CCC(N2C(=O)c3ccc(C4(O)CCN(Cc5ccc(C(F)(F)F)cc5)CC4)cc3C2=O)C(=O)N1 (stereo not shown) [Compound 16] was tested. Which inhibition at 10 µM (IKZF2 (Helios)) did it give?
**A.** Its inhibition at 10 µM is 69%.

**Q.** What about the DC50 (IKZF2 (Helios)) of the same compound?
**A.** Its DC50 is 56 nM.

**Q.** For O=C1CCC(N2C(=O)c3ccc(C4CCN(Cc5cccc(Nc6ccccn6)n5)CC4)cc3C2=O)C(=O)N1 (stereo not shown) [Compound 11], which IC50 (CRBN (NanoLuc-CRBN)) is on record?
**A.** The IC50 was 240 nM.

**Q.** What about the inhibition at 10 µM (IKZF2 (Helios)) of the same compound?
**A.** Its inhibition at 10 µM is 45%.

**Q.** Which IC50 (CRBN (NanoLuc-CRBN)) does the source give for O=C1CCC(N2C(=O)c3ccc(C4(O)CCN(Cc5ccc6cc(-c7ccccc7)nn6c5)CC4)cc3C2=O)C(=O)N1 (stereo not shown) [Compound 1, 2-(2,6-dioxo-3-piperidyl)-5-[4-hydroxy-1-[(2-phenylpyrazolo[1,5-a]pyridin-6-yl)methyl]-4-piperidyl]isoindoline-1,3-dione] here?
**A.** The IC50 was 38 nM.

**Q.** What about the inhibition at 10 µM (IKZF2 (Helios)) of the same compound?
**A.** The inhibition at 10 µM was 80%.

**Q.** What about the DC50 (IKZF2 (Helios)) of the same compound?
**A.** The DC50 was 4.9 nM.

**Q.** What does the source list for O=C1CCC(N2C(=O)c3ccc(C4(O)CCN(CC5CCOCC5)CC4)cc3C2=O)C(=O)N1 (stereo not shown) [Compound 7]?
**A.** IC50 (CRBN (NanoLuc-CRBN)): 56 nM; inhibition at 10 µM (IKZF2 (Helios)): 55%; DC50 (IKZF2 (Helios)): 55 nM

**Q.** For COc1ccc(Oc2cccc(CN3CCC(O)(c4ccc5c(c4)C(=O)N(C4CCC(=O)NC4=O)C5=O)CC3)c2)cc1 (stereo not shown) [Compound 2], which IC50 (CRBN (NanoLuc-CRBN)) is on record?
**A.** The IC50 was 41 nM.

**Q.** And the inhibition at 10 µM (IKZF2 (Helios))?
**A.** Its inhibition at 10 µM is 80%.

**Q.** And the DC50 (IKZF2 (Helios))?
**A.** Its DC50 is 5.1 nM.

**Q.** O=C1CCC(N2C(=O)c3ccc(C4(O)CCN(Cc5ccccc5C(F)(F)F)CC4)cc3C2=O)C(=O)N1 (stereo not shown) [Compound 14] was tested. Which IC50 (CRBN (NanoLuc-CRBN)) did it give?
**A.** Its IC50 is 62 nM.

**Q.** And the inhibition at 10 µM (IKZF2 (Helios))?
**A.** Its inhibition at 10 µM is 57%.

**Q.** And the DC50 (IKZF2 (Helios))?
**A.** The DC50 was 20 nM.

**Q.** Which results are given for O=C1CCC(N2C(=O)c3ccc(C4(O)CCN(Cc5ccc(F)c(Oc6ccccc6)c5)CC4)cc3C2=O)C(=O)N1 (stereo not shown) [Compound 4]?
**A.** IC50 (CRBN (NanoLuc-CRBN)): 88 nM; inhibition at 10 µM (IKZF2 (Helios)): 73%; DC50 (IKZF2 (Helios)): 23 nM

**Q.** O=C1CCC(N2C(=O)c3ccc(C4(O)CCN(Cc5ccccc5)CC4)cc3C2=O)C(=O)N1 (stereo not shown) [Compound 18, 5-(1-benzyl-4-hydroxypiperidin-4-yl)-2-(2,6-dioxopiperidin-3-yl)isoindoline-1,3-dione] was tested. Which IC50 (CRBN (NanoLuc-CRBN)) did it give?
**A.** The IC50 was 65 nM.

**Q.** What about the inhibition at 10 µM (IKZF2 (Helios)) of the same compound?
**A.** The inhibition at 10 µM was 70%.

**Q.** And the DC50 (IKZF2 (Helios))?
**A.** The DC50 was 22 nM.

**Q.** Which IC50 (CRBN (NanoLuc-CRBN)) does the source give for O=C1CCC(N2C(=O)c3ccc(C4(O)CCN(Cc5cccc6ccccc56)CC4)cc3C2=O)C(=O)N1 (stereo not shown) [Compound 9] here?
**A.** Its IC50 is 15 nM.

**Q.** And the inhibition at 10 µM (IKZF2 (Helios))?
**A.** The inhibition at 10 µM was 72%.

**Q.** And the DC50 (IKZF2 (Helios))?
**A.** The DC50 was 14 nM.

**Q.** Which results are given for O=C1CCC(N2C(=O)c3ccc(C4(O)CCN(Cc5ccc6ccccc6c5)CC4)cc3C2=O)C(=O)N1 (stereo not shown) [Compound 17, 2-(2,6-dioxo-3-piperidyl)-5-[4-hydroxy-1-(2-naphthylmethyl)-4-piperidyl]isoindoline-1,3-dione]?
**A.** IC50 (CRBN (NanoLuc-CRBN)): 200 nM; inhibition at 10 µM (IKZF2 (Helios)): 80%; DC50 (IKZF2 (Helios)): 13 nM

**Q.** Which results are given for O=C1CCC(N2C(=O)c3ccc(C4(O)CCN(Cc5cccc(Oc6ccccc6)c5)CC4)cc3C2=O)C(=O)N1 (stereo not shown) [Compound 15]?
**A.** IC50 (CRBN (NanoLuc-CRBN)): 31 nM; inhibition at 10 µM (IKZF2 (Helios)): 76%; DC50 (IKZF2 (Helios)): 4.2 nM

**Q.** With O=C1CCC(N2C(=O)c3ccc(C4(O)CCN(Cc5cccc(Nc6ccccn6)n5)CC4)cc3C2=O)C(=O)N1 (stereo not shown) [Compound 8] as the compound, how does the IC50 (CRBN (NanoLuc-CRBN)) read?
**A.** The IC50 was 76 nM.

**Q.** What about the inhibition at 10 µM (IKZF2 (Helios)) of the same compound?
**A.** Its inhibition at 10 µM is 71%.

**Q.** What about the DC50 (IKZF2 (Helios)) of the same compound?
**A.** Its DC50 is 24 nM.

**Q.** O=C1CCC(N2C(=O)c3ccc(C4(O)CCN(Cc5ccc(OC(F)F)cc5)CC4)cc3C2=O)C(=O)N1 (stereo not shown) [Compound 13] was tested. Which inhibition at 10 µM (IKZF2 (Helios)) did it give?
**A.** The inhibition at 10 µM was 74%.

**Q.** What about the DC50 (IKZF2 (Helios)) of the same compound?
**A.** Its DC50 is 19 nM.

**Q.** What does the source list for O=C1CCC(N2C(=O)c3ccc(C4(O)CCN(Cc5cc(F)cc(F)c5)CC4)cc3C2=O)C(=O)N1 (stereo not shown) [Compound 12]?
**A.** inhibition at 10 µM (IKZF2 (Helios)): 76%; DC50 (IKZF2 (Helios)): 61 nM

**Q.** How did the IC50 (CRBN (NanoLuc-CRBN)) turn out when O=C1CCC(N2C(=O)c3ccc(C4(O)CCN(Cc5cccc(Oc6ccc(Cl)cc6)c5)CC4)cc3C2=O)C(=O)N1 (stereo not shown) [Compound 3] was run?
**A.** The IC50 was 54 nM.

**Q.** What about the inhibition at 10 µM (IKZF2 (Helios)) of the same compound?
**A.** The inhibition at 10 µM was 79%.

**Q.** And the DC50 (IKZF2 (Helios))?
**A.** Its DC50 is 8.8 nM.
